Test results reported in publication PMC3618987, “From BACE1 Inhibitor to Multifunctionality of Tryptoline and Tryptamine Triazole Derivatives for Alzheimer’s Disease” (Molecules, 2012).

Columns and labels:
[1] = Fe (II) chelation capacity assay (ferrozine)
Description: An aqueous solution of 0.2 mM ferrous sulphate was prepared. Fifty microliters of this solution was added to 96 well plate, then 40 µL of 500 µM of test compounds in 50% DMSO were added to each well followed by DI water to adjust the volume to 150 µL. The mixtures were incubated at room temperature for 10 min. After incubation, 50 µL of 1 mM ferrozine (Sigma) was added to the reaction mixture. The absorbance was measured at 562 nm by using infinite 200 pro^TM, Tecan. EDTA was used as a positive control. Chelation capacity of each compounds were calculated. Compounds having chelating capacity over than 50% were evaluated for stoichiometric ratio of compound: metal.

β-Secretase (BACE1) = biological target: T1, β-Secretase (BACE1) (Homo sapiens, UniProt P56817); assay: β-Secretase inhibition assay (fluorogenic substrate IV); format: biochemical; conditions: for inhibition at 25 µM: read-out: BACE1 % Inhibition (at 25 µM) (±SEM)
T1 construct: purchased Sino Biological
Description: β-Secretase enzyme was reconstituted with 50 mM Tris (pH 7.5), 10% glycerol to yield concentration of 0.5 unit/µL. The enzyme stock solution was diluted with 100 mM sodium acetate buffer (pH 4.5) to 0.01 unit/µL. Thirty microliters of enzyme solution were added to each well that contained 20 µL of 5% DMSO of test compound. Then, fifty microliters of 50 µM β-secretase substrate IV from Calbiochem were added to the reaction plate. […] The assays were run in triplicate.

amyloid-β (1-42) peptide [2] = biological target: T2, amyloid-β (1-42) peptide (Homo sapiens, UniProt P05067); assay: Amyloid β aggregation assay (ThT fluorescence); format: biochemical; conditions: Aβ(1-42), read-out: Anti-Aβ aggregation IC50
T2 construct: Stock solution of amyloid-β (1-42) peptide (Anaspec; 1384 µM in 1% NH4OH); purchased Anaspec

[3] = Free radical scavenging assay (DPPH)
Description: The test samples were prepared in 50% DMSO at 500 µM. Seventy microliters of DPPH solution (500 µM in methanol) was added to 96 well plate. The assay mixture was adjusted to 80 µL volume by methanol. After adjusting the volume, 20 µL of test compounds was added to each well. The reaction plate was incubated at room temperature in dark for 30 min. The absorbance was measured at 517 nm by using infinite 200 pro^TM, Tecan. Ascorbic acid was used as a positive control. Percent inhibition was calculated and compounds showing activity were evaluated for the IC50 values.

amyloid-β (1-42) peptide [4] = biological target: T2, amyloid-β (1-42) peptide; assay: Amyloid β aggregation assay (ThT fluorescence); format: biochemical; conditions: Aβ(1-42), 48 h; for inhibition at 100 µM: read-out: Anti-Aβ aggregation % Inhibition (at 100 µM) (±SEM)
Description: Nine microliters amyloid-β solution was added to a greiner transparent 96 well plate. One microliter of each test compounds (1,000 µM in DMSO) were added to each well and mixed gently by tapping. The final concentrations of each compound were 100 µM in 10% DMSO. The reaction plate was incubated in dark at 37 °C for 48 h. After incubation, 200 µL of 5 µM ThT (Sigma) in 50 mM Tris buffer (pH 7.4) was added to each well. The fluorescence was measured at Ex = 446 nm and Em = 490 nm by using SpectraMax Gemini EM^TM [30]. The assays were run in triplicate.

T1 sequence (P56817 46-501): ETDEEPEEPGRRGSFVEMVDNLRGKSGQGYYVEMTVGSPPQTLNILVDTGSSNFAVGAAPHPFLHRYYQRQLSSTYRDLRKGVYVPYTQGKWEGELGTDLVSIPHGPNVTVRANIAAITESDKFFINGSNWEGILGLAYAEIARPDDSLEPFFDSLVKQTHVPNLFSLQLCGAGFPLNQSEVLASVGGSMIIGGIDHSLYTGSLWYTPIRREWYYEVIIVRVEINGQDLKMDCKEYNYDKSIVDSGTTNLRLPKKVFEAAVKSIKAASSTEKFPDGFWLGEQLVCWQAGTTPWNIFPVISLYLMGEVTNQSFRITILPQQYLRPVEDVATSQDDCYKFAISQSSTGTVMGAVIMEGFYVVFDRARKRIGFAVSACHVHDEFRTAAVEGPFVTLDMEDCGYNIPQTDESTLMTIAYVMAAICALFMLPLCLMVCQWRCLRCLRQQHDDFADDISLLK
T2 sequence (P05067 672-713 limits assumed): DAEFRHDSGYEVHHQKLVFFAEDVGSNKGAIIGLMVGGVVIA

| Compound | Fe chelation % Capacity (at 100 µM) (±SEM) [1] | inhibition at 25 µM (β-Secretase (BACE1)) [%] | DPPH % Inhibition (at 100 µM) (±SEM) [3] | inhibition at 100 µM (amyloid-β (1-42) peptide [4]) [%] | also measured |
| --- | --- | --- | --- | --- | --- |
| N[C@@H](Cc1c[nH]c2ccccc12)Cn1cc(CNC(=O)c2ccccc2C(=O)c2ccc(O)cc2)nn1 [Compound 12d, (S)-N-((1-(2-Amino-3-(1H-indol-3-yl)propyl)-1H-1,2,3-triazol-4-yl)methyl)-2-(4-hydroxybenzoyl)-benzamide] | 13.87 (±0.59) % | 33 | 1.56 (±0.51) % | – | IC50 (amyloid-β (1-42) peptide [2]): 47.5 µM |
| N[C@@H](Cc1c[nH]c2ccccc12)Cn1cc(CNC(=O)CCc2ccc(O)cc2)nn1 [Compound 12e, (S)-N-((1-(2-Amino-3-(1H-indol-3-yl)propyl)-1H-1,2,3-triazol-4-yl)methyl)-3-(4-hydroxyphenyl)propanamide] | 41.42 (±1.13) % | 7.53 | – | 36 | – |
| (S)-1-(1H-Indol-3-yl)-3-(4-(6-methoxynaphthalen-2-yl)-1H-1,2,3-triazol-1-yl)propan-2-amine [Compound 12b] | 10.54 (±0.22) % | – | – | – | Anti-Aβ aggregation % Inhibition (at 100 µM) (±SEM) (amyloid-β (1-42) peptide [4]): 34.02 (±10.13) %; BACE1 % Inhibition (at 25 µM) (±SEM) (β-Secretase (BACE1); 25 µM): 30.42 (±3.54) % |
| O=C1O[C@H]([C@@H](O)CO)C(O)=C1O [Ascorbic acid, reference compound] | – | – | 53.64 (±0.11) % | – | IC50 [3]: 94.9 µM |
| O=C(CCc1ccc(O)cc1)NCc1cn(C[C@@H]2Cc3c([nH]c4ccccc34)CN2)nn1 [Compound 6e, (S)-3-((4-(N-(((4-Hydroxyphenyl)propanoyl)azyl)methyl)-1H-1,2,3-triazol-1-yl)methyl)-2,3,4,9-tetra-hydro-1H-pyrido[3,4-b]ind ole] | 20.63 (±0.35) % | 12.6 | 5.45 (±0.33) % | – | – |
| O=C(NCc1cn(C[C@@H]2Cc3c([nH]c4ccccc34)CN2)nn1)c1ccccc1C(=O)c1ccc(O)cc1 [Compound 6d] | 32.86 (±0.19) % | 14.1 | 2.81 (±0.37) % | – | – |
| O=C(O)CN(CCN(CC(=O)O)CC(=O)O)CC(=O)O [EDTA, reference compound] | 98.00 (±0.34) % | – | – | – | – |
| CC(C)(C)c1ccc(-c2cn(C[C@@H]3Cc4c([nH]c5ccccc45)CN3)nn2)cc1 [Compound 6a, (S)-3-((4-(4-tert-Butylphenyl)-1H-1,2,3-triazol-1-yl)methyl)-2,3,4,9-tetrahydro-1H-pyrido[3,4-b] indole] | 9.67 (±0.32) % | 68 | – | – | IC50 (β-Secretase (BACE1)): 19.8 µM |
| CC(C)(C)c1ccc(-c2cn(C[C@@H](N)Cc3c[nH]c4ccccc34)nn2)cc1 [Compound 12a, (S)-1-(4-(4-tert-Butylphenyl)-1H-1,2,3-triazol-1-yl)-3-(1H-indol-3-yl)propan-2-amine] | 42.65 (±1.07) % | 18.9 | – | 17.8 | – |
| Clc1ccc(-c2cn(C[C@@H]3Cc4c([nH]c5ccccc45)CN3)nn2)cc1Cl [Compound 6c, (S)-3-((4-(3,4-Dichlorophenyl)-1H-1,2,3-triazol-1-yl)methyl)-2,3,4,9-tetrahydro-1H-pyrido[3,4-b]-indole] | 15.88 (±0.21) % | 78.9 | – | 10.1 | IC50 (β-Secretase (BACE1)): 18 µM |
| COc1ccc2cc(-c3cn(C[C@@H]4Cc5c([nH]c6ccccc56)CN4)nn3)ccc2c1 [Compound 6b, (S)-3-((4-(6-Methoxynaphthalen-2-yl)-1H-1,2,3-triazol-1-yl)me-thyl)-2,3,4,9-tetrahydro-1H-pyrido-[3,4-b]indole] | 12.35 (±0.68) % | 73.6 | – | 7.19 | IC50 (β-Secretase (BACE1)): 18.9 µM |
| COc1cc(/C=C/C(=O)CC(=O)/C=C/c2ccc(O)c(OC)c2)ccc1O [Curcumin, reference compound] | – | – | – | 82.9 | – |
